Laboratory results as given in patent publication US20040267001A1, “Genes encoding baeyer-villiger monooxygenases” (priority 2001, published 2004).

Columns and labels:
Assay in all cases: chnB monooxygenase activity assay, NADPH oxidation at 340 nm, purified over-expressed enzyme
Assay type in all cases: biochemical
[1] = tested on: Acidovorax sp. CHX chnB monooxygenase; conditions: 1.25 mM substrate, pH 7.5; ND = No Activity Detected
Description: (§1) Following amplification, the chnB gene fragments were cloned into pTrcHis-TOPO TA vectors with either an N-terminal tail or C-terminal tail, as provided by the vector sequence (N-terminal tail for Brevibacterium sp. HCU, Rhodococcus sp. phi1, Rhodococcus sp. phi2, and Arthrobacter sp. BP2 monooxygenases; C-terminal tail for Acinetobacter sp. SE19 and Acidovorax sp. CHX monooxygenases). These vectors were transformed into E. coli, with transformants grown in Luria-Bertani broth supplemented with ampicillin (100 ug/ml) and riboflavin (0.1 ug/ml) at 30° C. until the absorbance at 600 nm (A600) reached 0.5. When the A600 was reached, the temperature was shifted to 16° C.
(§2) The encoded monooxygenase sequences were expressed upon addition of IPTG to the culture media, 30 min after the temperature shift to 16° C. The cultures were grown further ovemight (14 hrs) and harvested by centrifugation in a cold centrifuge. The cells were treated with lysozyme (100 mg/ml) for 30 min on ice and sonicated. Following sonication, cell extracts were centrifuged and the supernatant was equilibrated with Ni-NTA resin (Qiagen, Valencia, Calif.) for 1 hr at 4° C. Protein bound resin was washed successively with increasing concentrations of imidazole buffer until the protein of interest was released from the resin. The purified protein was concentrated and the buffer exchanged to remove the imidazole. The protein concentration was adjusted to 1 ug/ml.
(§3) Compounds were selected on the basis of previous observations by van der Werf (J. Biochem. 347:693-701 (2000)) and Miyamoto et al. (Biochimica et Biophysica Acta 1251: 115-124 (1995)) and by searches for the ketone substructure.
(§4) All compounds were obtained from Sigma-Aldrich with only two exceptions. Levoglucosenone was obtained from Toronto Research Chemicals, Inc. and dimethyl-2-piperidone was prepared according to U.S. Pat. No. 6,077,955. For enzyme assays all compounds were dissolved to a concentration of 0.1 M in methanol, with the exceptions of norcamphor (dissolved in ethyl acetate), cyclododecanone, cycltridecanone and cyclopentadecanone (dissolved in propanol), and levoglucosenone (dissolved with acetone).
(§5) The monooxygenase activity of each over-expressed enzyme was assayed spectrophotometrically at 340 nm by monitoring the oxidation of NADPH. Assays were performed in individual quartz cuvettes, with a pathlength of 1 cm. […] An Ultrospec 4000 (Pharmacia Biotech, Cambridge, England) was used to read the absorbance of the samples over a two to ten minute time period and the SWIFT (Pharmacia Biotech) program was used to calculate the slope of the reduction in absorbance over time. For the Brevibactedum sp. […] Monooxygenase activity of each over-expressed enzyme is shown in Table 5, with respect to each ketone substrate. The specific activity values listed are given in umol/min/mg. The notation “ND” refers to “No Activity Detected”.

[2] = biological target: T1, Acinetobacter sp. SE19 chnB monooxygenase (Acinetobacter sp., UniProt Q9F7E4); conditions: 1.25 mM substrate, pH 7.5; ND = No Activity Detected
T1 construct: isolated full length BVMO genes from Brevibacterium sp; HCU, Acinetobacter SE19; C-terminal tail provided by the pTrcHis-TOPO vector (C); made in house; host or cells: E. coli
Description: as §1, §2, §3, §4, §5

[3] = tested on: Arthrobacter sp. BP2 chnB monooxygenase; conditions: 1.25 mM substrate, pH 7.5; ND = No Activity Detected
Description: as §1, §2, §3, §4, §5

[4] = tested on: Brevibacterium sp. HCU chnB1 monooxygenase; conditions: 1.25 mM substrate, pH 7.5; ND = No Activity Detected
Description: as §1, §2, §3, §4, §5

[5] = tested on: Brevibacterium sp. HCU chnB2 monooxygenase; conditions: 1.25 mM substrate, pH 7.5; rates multiplied by a factor of 3.25 to adjust for decrease in activity due to storage; ND = No Activity Detected
Description: as §1, §2, §3, §4, §5

[6] = tested on: Rhodococcus sp. phi1 chnB monooxygenase; conditions: 1.25 mM substrate, pH 7.5; ND = No Activity Detected
Description: as §1, §2, §3, §4, §5

[7] = tested on: Rhodococcus sp. phi2 chnB monooxygenase; conditions: 1.25 mM substrate, pH 7.5; ND = No Activity Detected
Description: as §1, §2, §3, §4, §5

Molecule | Specific Activity of Monooxygenase Enzymes Against Various Ketone Substrates, sp. CHX chnB [1] [µmol/min/mg] | Specific Activity of Monooxygenase Enzymes Against Various Ketone Substrates, sp. SE19 chnB [2] [µmol/min/mg] | Specific Activity of Monooxygenase Enzymes Against Various Ketone Substrates, sp. BP2 chnB [3] [µmol/min/mg] | Specific Activity of Monooxygenase Enzymes Against Various Ketone Substrates, sp. HCU chnB1 [4] [µmol/min/mg] | Specific Activity of Monooxygenase Enzymes Against Various Ketone Substrates, sp. HCU chnB2 [5] [µmol/min/mg] | Specific Activity of Monooxygenase Enzymes Against Various Ketone Substrates, sp. phi1 chnB [6] [µmol/min/mg] | Specific Activity of Monooxygenase Enzymes Against Various Ketone Substrates, sp. phi2 chnB [7] [µmol/min/mg]
CC1CCCC1=O (stereo not drawn) [2-methyl-cyclopentanone] | 0.627 | 8.378 | 3.514 | 1.395 | 0.874 | 3.392 | 6.445
CCCCCCCCCCCC(C)=O [2-tridecanone] | 0.096 | – | – | – | 0.187 | 0.160 | 1.690
O=C1CCCC1 [Cyclopentanone] | 0.621 | 3.034 | 1.491 | – | 1.331 | 1.370 | 2.451
dimethy-2-piperidone | 0.557 | 8.384 | 4.154 | 2.822 | 0.354 | 3.539 | 6.509
O=C1CCC1 [Cyclobutanone] | – | 0.109 | 0.128 | – | 0.374 | 0.102 | 0.154
O=C1CCCCC1c1ccccc1 (stereo not drawn) [2-phenyl-cyclohexanone] | 0.192 | 5.370 | – | 1.459 | 0.104 | 1.050 | 0.730
O=C1CCCCCCCCCCC1 [Cyclododecanone] | 0.051 | 0.122 | 0.198 | – | 0.229 | – | 0.122
OB(O)c1ccccc1 [Phenylboronic acid] | – | 0.102 | 0.192 | 1.606 | – | – | 0.109
CCCCCCC(=O)CCCCCC [dihexyl ketone] | – | – | – | – | 0.270 | 0.160 | –
O=C1CCCCCCCCCC1 [Cycloundecanone] | 0.058 | 0.064 | 0.064 | – | 0.125 | – | 0.051
O=C1CCCC(=O)C1 [1,3-cyclohexanedione] | 0.032 | 0.237 | 0.397 | 0.237 | 0.978 | – | 0.141
C[S+](C)[O-] [dimethyl sulfoxide] | 0.358 | 0.819 | 0.422 | 0.230 | – | 0.518 | 0.544
O=C1C=C[C@H]2CO[C@@H]1O2 [Levoglucosenone] | 0.147 | 1.126 | 0.525 | – | – | 0.461 | 0.506
O=C1CCCCCCCCCCCCCC1 [Cyclopenta-decanone] | – | 0.109 | 0.122 | – | – | 0.122 | –
O=C1CCCCCCCCC1 [Cyclodecanone] | 0.160 | 0.320 | 0.166 | – | – | 0.077 | 0.205
O=C1CCCCCCCCCCCC1 [Cyclotridecanone] | – | 0.166 | 0.147 | – | – | – | 0.109
O=C1CCCCCCC1 [Cyclooctanone] | 0.410 | 1.984 | 0.646 | – | – | 0.627 | 0.141
O=C1CCCCC1=O [1,2-cyclohexanedione] | 0.096 | 0.077 | 0.237 | 0.787 | 0.416 | 0.083 | –
